Target: Sperm whale WT Mb (myoglobin, Mb) (Physeter macrocephalus, UniProt P02185, F44H/H65A)
Test: biochemical

Sequence of Sperm whale WT Mb (myoglobin, Mb) (P02185 2-154 F44H/H65A): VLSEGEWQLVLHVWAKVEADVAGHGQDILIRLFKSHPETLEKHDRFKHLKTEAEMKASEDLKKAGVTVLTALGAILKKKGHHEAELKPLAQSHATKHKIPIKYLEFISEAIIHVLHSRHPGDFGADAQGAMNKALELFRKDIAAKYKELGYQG

Kd: 474 µM
Compound: CN(C)c1ccc(C(=C2C=CC(=[N+](C)C)C=C2)c2ccccc2)cc1 [MG, malachite green]

From publication PMC9029994 (RSC Advances, 2021)
